Data taken from patent publication US20170101383A1, “DIAMINOTRIAZINE DERIVATIVES AS HERBICIDES” (BASF SE, priority 2014, published 2017).

Tests used:
Assay type in all cases: in vivo
Apera spica-venti [1] = test: greenhouse post-emergence treatment, APESV; settings: 0.500 kg/ha, scale 0 to 100
From the text: (§1) The seeds of the test plants were sown separately for each species. For the post-emergence treatment, the test plants were first grown to a height of 3 to 15 cm, depending on the plant habit, and only then treated with the active ingredients which had been suspended or emulsified in water. For this purpose, the test plants were either sown directly and grown in the same containers, or they were first grown separately as seedlings and transplanted into the test containers a few days prior to treatment. Depending on the species, the plants were kept at 10-25° C. or 20-35° C., respectively. The test period extended over 2 to 4 weeks. During this time, the plants were tended, and their response to the individual treatments was evaluated. Evaluation was carried out using a scale from 0 to 100. 100 means no emergence of the plants, or complete destruction of at least the aerial moieties, and 0 means no damage, or normal course of growth. A moderate herbicidal activity is given at values of at least 60, a good herbicidal activity is given at values of at least 70, and a very good herbicidal activity is given at values of at least 85. The plants used in the greenhouse experiments were of the following species: [table]

Apera spica-venti [2] = test: greenhouse pre-emergence treatment, APESV; settings: 0.500 kg/ha, scale 0 to 100
From the text: (§2) The seeds of the test plants were sown separately for each species. For the pre-emergence treatment, the active ingredients, which had been suspended or emulsified in water, were applied directly after sowing by means of finely distributing nozzles. The containers were irrigated gently to promote germination and growth and subsequently covered with transparent plastic hoods until the plants had rooted. This cover caused uniform germination of the test plants, unless this had been impaired by the active ingredients. Depending on the species, the plants were kept at 10-25° C. or 20-35° C., respectively. The test period extended over 2 to 4 weeks. During this time, the plants were tended, and their response to the individual treatments was evaluated. Evaluation was carried out using a scale from 0 to 100. 100 means no emergence of the plants, or complete destruction of at least the aerial moieties, and 0 means no damage, or normal course of growth. A moderate herbicidal activity is given at values of at least 60, a good herbicidal activity is given at values of at least 70, and a very good herbicidal activity is given at values of at least 85. The plants used in the greenhouse experiments were of the following species: [table]

Amaranthus retroflexus [3] = test: greenhouse post-emergence treatment, AMARE; settings: for herbicidal activity against AMARE / pest or weed control at 500 g/ha: 0.500 kg/ha; for herbicidal activity against AMARE: scale 0 to 100; for pest or weed control at 1000 g/ha / pest or weed control at 500 g/ha: Amaranthus retroflexus, scale 0 to 100, read-out: herbicidal activity against AMARE; for pest or weed control at 1000 g/ha: 1.000 kg/ha
From the text: as §1

Amaranthus retroflexus [4] = test: greenhouse pre-emergence treatment, AMARE; settings: 0.500 kg/ha, scale 0 to 100
From the text: as §2

Setaria faberi [5] = test: greenhouse pre-emergence treatment, SETFA; settings: 0.500 kg/ha, scale 0 to 100
From the text: as §2

Alopecurus myosuroides = test: greenhouse pre-emergence treatment, ALOMY; settings: 0.500 kg/ha, scale 0 to 100
From the text: as §2

Abutilon theophrasti [6] = test: greenhouse post-emergence treatment, ABUTH; settings: scale 0 to 100
From the text: as §1

Abutilon theophrasti [7] = test: greenhouse pre-emergence treatment, ABUTH; settings: 0.500 kg/ha, scale 0 to 100
From the text: as §2

Setaria faberi [8] = test: greenhouse post-emergence treatment, SETFA; settings: scale 0 to 100
From the text: as §1

Structure (SMILES)	herbicidal activity against APESV (Apera spica-venti [1])	herbicidal activity against APESV (Apera spica-venti [2])	herbicidal activity against AMARE (Amaranthus retroflexus [4])	herbicidal activity against SETFA (Setaria faberi [5])	herbicidal activity against ALOMY (Alopecurus myosuroides)	further results
COC[C@@H]1CCCN1c1nc(N)nc(Nc2c(F)c(F)c(F)c(F)c2F)n1 [Example 29]	very good (a very good herbicidal activity is given at values of at least 85)	very good (a very good herbicidal activity is given at values of at least 85)	very good (a very good herbicidal activity is given at values of at least 85)	–	–	herbicidal activity against AMARE (Amaranthus retroflexus [3]): very good (a very good herbicidal activity is given at values of at least 85)
Nc1nc(Nc2c(F)c(F)c(F)c(F)c2F)nc(N2CCCCCC2)n1 [Example 7]	–	good to very good	–	good to very good	good to very good	herbicidal activity against ABUTH (Abutilon theophrasti [6]; 1.000 kg/ha): very good (a very good herbicidal activity is given at values of at least 85); pest or weed control at 1000 g/ha (Amaranthus retroflexus [3]): ≥ 85%
CON(C)c1nc(N)nc(Nc2c(F)c(F)cc(F)c2F)n1 [Example 28]	–	very good (a very good herbicidal activity is given at values of at least 85)	very good (a very good herbicidal activity is given at values of at least 85)	very good (a very good herbicidal activity is given at values of at least 85)	very good (a very good herbicidal activity is given at values of at least 85)	herbicidal activity against ABUTH (Abutilon theophrasti [7]): very good (a very good herbicidal activity is given at values of at least 85); herbicidal activity against ABUTH (Abutilon theophrasti [6]; 0.500 kg/ha): very good (a very good herbicidal activity is given at values of at least 85); pest or weed control at 500 g/ha (Amaranthus retroflexus [3]): ≥ 85%; herbicidal activity against SETFA (Setaria faberi [8]; 0.500 kg/ha): very good (a very good herbicidal activity is given at values of at least 85)
Nc1nc(Nc2c(F)c(F)c(F)c(F)c2F)nc(N2CCOCC2)n1 [Example 23]	–	very good (a very good herbicidal activity is given at values of at least 85)	very good (a very good herbicidal activity is given at values of at least 85)	–	–	herbicidal activity against ABUTH (Abutilon theophrasti [7]): very good (a very good herbicidal activity is given at values of at least 85)
COCC1CCCN1c1nc(N)nc(Nc2c(F)c(F)c(F)c(F)c2F)n1 (stereo not drawn) [Example 31]	very good (a very good herbicidal activity is given at values of at least 85)	good to very good	good to very good	–	–	–
CC1CCCN1c1nc(N)nc(Nc2c(F)c(F)c(F)c(F)c2F)n1 (stereo not drawn) [Example 20]	–	very good (a very good herbicidal activity is given at values of at least 85)	very good (a very good herbicidal activity is given at values of at least 85)	very good (a very good herbicidal activity is given at values of at least 85)	–	–
COC[C@H]1CCCN1c1nc(N)nc(Nc2c(F)c(F)c(F)c(F)c2F)n1 [Example 25]	very good (a very good herbicidal activity is given at values of at least 85)	good to very good	good to very good	good to very good	good to very good	herbicidal activity against AMARE (Amaranthus retroflexus [3]): very good (a very good herbicidal activity is given at values of at least 85); herbicidal activity against SETFA (Setaria faberi [8]; 0.500 kg/ha): very good (a very good herbicidal activity is given at values of at least 85)
CCN(C)c1nc(N)nc(Nc2c(F)c(F)cc(F)c2F)n1 [Example 22]	–	very good (a very good herbicidal activity is given at values of at least 85)	very good (a very good herbicidal activity is given at values of at least 85)	–	very good (a very good herbicidal activity is given at values of at least 85)	–
COC[C@@H]1CCCN1c1nc(N)nc(Nc2c(F)c(F)cc(F)c2F)n1 [Example 30]	very good (a very good herbicidal activity is given at values of at least 85)	very good (a very good herbicidal activity is given at values of at least 85)	very good (a very good herbicidal activity is given at values of at least 85)	–	–	herbicidal activity against AMARE (Amaranthus retroflexus [3]): very good (a very good herbicidal activity is given at values of at least 85)
Nc1nc(Nc2c(F)c(F)c(F)c(F)c2F)nc(N2CCCC2)n1 [Example 6]	–	very good (a very good herbicidal activity is given at values of at least 85)	–	very good (a very good herbicidal activity is given at values of at least 85)	very good (a very good herbicidal activity is given at values of at least 85)	herbicidal activity against ABUTH (Abutilon theophrasti [6]; 1.000 kg/ha): very good (a very good herbicidal activity is given at values of at least 85); pest or weed control at 1000 g/ha (Amaranthus retroflexus [3]): ≥ 85%; herbicidal activity against SETFA (Setaria faberi [8]; 1.000 kg/ha): very good (a very good herbicidal activity is given at values of at least 85)
CC1CCCN1c1nc(N)nc(Nc2c(F)c(F)cc(F)c2F)n1 (stereo not drawn) [Example 21]	–	–	very good (a very good herbicidal activity is given at values of at least 85)	very good (a very good herbicidal activity is given at values of at least 85)	very good (a very good herbicidal activity is given at values of at least 85)	–
CCN(CC)c1nc(N)nc(Nc2c(F)c(F)cc(F)c2F)n1 [Example 36]	very good (a very good herbicidal activity is given at values of at least 85)	good to very good	good to very good	–	–	pest or weed control at 500 g/ha (Amaranthus retroflexus [3]): ≥ 85%
CN(Cc1ccccc1)c1nc(N)nc(Nc2c(F)c(F)c(F)c(F)c2F)n1 [Example 10]	–	–	–	–	–	herbicidal activity against ABUTH (Abutilon theophrasti [6]; 1.000 kg/ha): very good (a very good herbicidal activity is given at values of at least 85); pest or weed control at 1000 g/ha (Amaranthus retroflexus [3]): ≥ 85%
COC[C@H]1CCCN1c1nc(N)nc(Nc2c(F)c(F)cc(F)c2F)n1 [Example 26]	very good (a very good herbicidal activity is given at values of at least 85)	very good (a very good herbicidal activity is given at values of at least 85)	very good (a very good herbicidal activity is given at values of at least 85)	very good (a very good herbicidal activity is given at values of at least 85)	very good (a very good herbicidal activity is given at values of at least 85)	herbicidal activity against AMARE (Amaranthus retroflexus [3]): very good (a very good herbicidal activity is given at values of at least 85); herbicidal activity against SETFA (Setaria faberi [8]; 0.500 kg/ha): very good (a very good herbicidal activity is given at values of at least 85)
CC1CCC(C)N1c1nc(N)nc(Nc2c(F)c(F)c(F)c(F)c2F)n1 (stereo not drawn) [Example 17]	–	very good (a very good herbicidal activity is given at values of at least 85)	very good (a very good herbicidal activity is given at values of at least 85)	very good (a very good herbicidal activity is given at values of at least 85)	–	–
COCC1CCCN1c1nc(N)nc(Nc2c(F)c(F)cc(F)c2F)n1 (stereo not drawn) [Example 32]	very good (a very good herbicidal activity is given at values of at least 85)	good to very good	good to very good	good to very good	good to very good	pest or weed control at 500 g/ha (Amaranthus retroflexus [3]): ≥ 85%; herbicidal activity against SETFA (Setaria faberi [8]; 0.500 kg/ha): very good (a very good herbicidal activity is given at values of at least 85)
